# Measured values: patent publication US20240115534A1, “COMPOSITION FOR MUSCLE ENHANCEMENT AND USE OF SAME” (J-OIL MILLS, INC., priority 2021, published 2024)
# Tested on: mouse myoblast strain C2C12 (myotube cells)
# Assay: Myotube area and maximum transverse diameter of C2C12 myotube cells (anti-MHC immunostaining, imaging analysis)
# Format: cell-based
# Conditions: for Maximum transverse diameter/myotube cell (%) Average value / Myotube area/field of view (%) Average value: two days, untreated control = 100%
# Experimental: Cells of mouse myoblast strain C2C12 (ATCC catalog no. CRL-1772)
# Proliferation culture medium: DMEM (high glucose) to which 10% FBS and 1% PS are added
# Differentiation culture medium: DMEM (high glucose) to which 2% HS and 1% PS are added
# The fatty acids indicated below were added to the culture medium so as to reach a concentration of 0.05 mM, 0.2 mM, or 0.5 mM. As a positive control, insulin-like growth factor (IGF-1) (made by Sigma-Aldrich Co., LLC), which is a factor for promoting formation of myotube cells, was added to the culture medium so as to reach a concentration of 10 ng/mL.
# The fatty acids were dissolved in dimethyl sulfoxide (DMSO) (made by Nacalai Tesque Inc.) to formulate solutions having a concentration of 0.05 M, 0.2 M, 0.5 M, or 1 M, and the solutions were added in 1/1000 amounts to the culture medium to reach a target final concentration of 0.05 mM, 0.2 mM, 0.5 mM, or 1 mM. The IGF-1 serving as a positive control was formulated to a concentration of 10 μg/mL using 0.1 N HCl, and the resultant solution was added in a 1/1000 amount to the culture medium to reach a target final concentration of 10 ng/mL.
# The C2C12 cells were recovered in a T75 flask using the proliferation culture medium and cultured using a CO2 incubator (37° C., 5% CO2, moist; same applies below). The culture medium was replaced at intervals of one to two days. The cells were peeled away (3 to 5 minutes) using 0.25% trypsin-EDTA (made by Nacalai Tesque Inc.) (1 mL) at the point in time when 80% confluence was reached, and 5 mL of culture medium was added, after which the components were centrifuged (180×g, 5 minutes, room temperature). A supernatant was removed, and cell pellets were suspended in fresh culture medium and sown in a 96-well black plate at a rate of 10,000 cells/0.1 mL/well. The next day, the culture medium was replaced with the differentiation culture medium, and culturing was carried out for two days to induce differentiation into myotube cells. The culture medium was then replaced with differentiation culture medium (100 μL) to which the substance under test was added, and culturing was carried out for a further two days.
# After treatment with the substance under test, the wells were refilled with 100 μL of a fixing solution (4% PFA: paraformaldehyde (made by Nacalai Tesque Inc.)), incubated for 15 minutes at 4° C., and then washed three times using Dulbecco's Phosphate-Buffered Saline (DPBS) (made by Thermo Fisher Scientific Inc.). 100 μL of a blocking/membrane permeation liquid solution (0.3% TritonX/3% BSA/DPBS) was added, and the components were incubated for 30 minutes at room temperature. The aforementioned solution replaced with a primary antibody solution (primary antibody reagent (diluted by a factor of 300)/3% BSA/DPBS) and then incubated overnight at 4° C. The primary antibody solution was removed, and the wells were washed three times using a blocking solution (3% BSA/DPBS) before being refilled with a secondary antibody solution (secondary antibody reagent (diluted by a factor of 500)/0.1% nucleus-staining reagent/3% BSA/DPBS) and incubated for two hours at room temperature. Finally, the wells were washed three times using DPBS and refilled with new DPBS before imaging analysis was carried out.
# An automatic cell image system (“Operetta CLS,” made by PerkinElmer Inc.) was used in the imaging analysis of the immunostained cells. Nine fields of view of central sections of the wells were imaged using a 10× objective lens, and then fluorescent regions marked by the anti-MHC antibodies and cell nucleus regions marked by the nucleus-staining reagent were detected using image analysis software (Harmony 4.6) included with the system. […]
# [1] = Table 1 data, 0.5 mM, vs comparative example 1-1, Dunnett's test, 5%
# [2] = Table 2 data, 0.2 mM, vs comparative example 2-1
# [3] = Table 2 data, 0.5 mM, vs comparative example 2-1
# [4] = Table 3 data, 0.5 mM, vs comparative example 3-1
compound,measurement,setting,value
"CCCCCCCCCCCCCCCCC(=O)O [Heptadecanoic acid (C17:0), Heptadecanoic acid, reference compound]",Maximum transverse diameter/myotube cell (%) Average value,"Table 1, 0.5 mM, n=5",98.4%
same,Myotube area/field of view (%) Average value,"Table 1, 0.5 mM, n=5",82.8%
same,"area of the myotube cells within the fields of view, change versus control (in words)",[1],significantly decreased
"CCCCCCCCCCCCCCCC(=O)O [Hexadecanoic acid (C16:0), Hexadecanoic acid, reference compound]",Maximum transverse diameter/myotube cell (%) Average value,"Table 4, 0.05 mM",98.7%
same,Myotube area/field of view (%) Average value,"Table 4, 0.05 mM",91.4%
same,Maximum transverse diameter/myotube cell (%) Average value,"Table 4, 0.5 mM",104.9%
same,Myotube area/field of view (%) Average value,"Table 4, 0.5 mM",80.9%
same,"per-cell maximum transverse diameter of the myotube cells, effect (in words)","Table 4 data, 0.05 mM",no effect
same,"per-cell maximum transverse diameter of the myotube cells, effect (in words)","Table 4 data, 0.5 mM",no effect
same,"area of the myotube cells within the fields of view, change versus control (in words)","Table 4 data, 0.5 mM, vs comparative example 4-1",significantly decreased
"CCCCCCCCCCCCCCC(=O)O [Pentadecanoic acid (C15:0), Pentadecanoic acid]",Maximum transverse diameter/myotube cell (%) Average value,"Table 1, 0.5 mM, n=5",132.2%
same,Myotube area/field of view (%) Average value,"Table 1, 0.5 mM, n=5",116.0%
same,"area of the myotube cells within the fields of view, change versus control (in words)",[1],significantly increased
same,"per-cell maximum transverse diameter of the myotube cells, change versus control (in words)",[1],significantly increased
same,Maximum transverse diameter/myotube cell (%) Average value,"Table 2, 0.05 mM",103.0%
same,Myotube area/field of view (%) Average value,"Table 2, 0.05 mM",108.0%
same,Maximum transverse diameter/myotube cell (%) Average value,"Table 2, 0.2 mM",109.3%
same,Myotube area/field of view (%) Average value,"Table 2, 0.2 mM",119.3%
same,Maximum transverse diameter/myotube cell (%) Average value,"Table 2, 0.5 mM",111.4%
same,Myotube area/field of view (%) Average value,"Table 2, 0.5 mM",118.7%
same,"per-cell maximum transverse diameter of the myotube cells, change versus control (in words)","Table 2 data, 0.05 mM, vs comparative example 2-1",significantly increased
same,"area of the myotube cells within the fields of view, change versus control (in words)",[2],significantly increased
same,"per-cell maximum transverse diameter of the myotube cells, change versus control (in words)",[2],significantly increased
same,"area of the myotube cells within the fields of view, change versus control (in words)",[3],significantly increased
same,"per-cell maximum transverse diameter of the myotube cells, change versus control (in words)",[3],significantly increased
"CCCCCCCCCCCCCC(=O)O [Tetradecanoic acid (C14:0), Tetradecanoic acid]",Maximum transverse diameter/myotube cell (%) Average value,"Table 3, 0.5 mM",108.6%
same,Myotube area/field of view (%) Average value,"Table 3, 0.5 mM",114.7%
same,Maximum transverse diameter/myotube cell (%) Average value,"Table 3, 1 mM",124.4%
same,Myotube area/field of view (%) Average value,"Table 3, 1 mM",107.3%
same,"area of the myotube cells within the fields of view, change versus control (in words)",[4],significantly increased
same,"per-cell maximum transverse diameter of the myotube cells, change versus control (in words)",[4],significantly increased
same,"per-cell maximum transverse diameter of the myotube cells, change versus control (in words)","Table 3 data, 1.0 mM, vs comparative example 3-1",significantly increased
"CCCCCCCCCCCCC(=O)O [Tridecanoic acid (C13:0), Tridecanoic acid]",Maximum transverse diameter/myotube cell (%) Average value,"Table 1, 0.5 mM, n=5",124.1%
same,Myotube area/field of view (%) Average value,"Table 1, 0.5 mM, n=5",98.1%
same,"per-cell maximum transverse diameter of the myotube cells, change versus control (in words)",[1],significantly increased
"CCCCCCCCCCC(=O)O [Undecanoic acid (C11:0), Undecanoic acid, reference compound]",Maximum transverse diameter/myotube cell (%) Average value,"Table 1, 0.5 mM, n=5",103.1%
same,Myotube area/field of view (%) Average value,"Table 1, 0.5 mM, n=5",103.4%
same,effect on the myotube cells (in words),"Table 1 data, 0.5 mM",no effect
"IGF-1: insulin-like growth factor (IGF-1), a factor for promoting formation of myotube cells; positive control at 10 ng/mL",Maximum transverse diameter/myotube cell (%) Average value,"Table 1, 10 ng/mL",101.8%
same,Myotube area/field of view (%) Average value,"Table 1, 10 ng/mL",114.1%
same,Maximum transverse diameter/myotube cell (%) Average value,"Table 2, 10 ng/mL",99.1%
same,Myotube area/field of view (%) Average value,"Table 2, 10 ng/mL",126.8%
same,Maximum transverse diameter/myotube cell (%) Average value,"Table 3, 10 ng/mL",100.4%
same,Myotube area/field of view (%) Average value,"Table 3, 10 ng/mL",120.5%
same,Maximum transverse diameter/myotube cell (%) Average value,"Table 4, 10 ng/mL",104.8%
same,Myotube area/field of view (%) Average value,"Table 4, 10 ng/mL",132.8%
